Data set [1] concerns the target recombinant human GCPII protein (Homo sapiens, UniProt Q04609). The experiment in a line: GCPII radioenzymatic activity assay. Format: biochemical. The note with it: read-out: IC50(±SEM).
Data set [2] is described as follows: Plasma stability of 2-PMPA prodrugs, human plasma. The format is in vitro ADME. The following applies: 10 μM, 37 °C.
The conditions of data set [3]: rats; for tissue/plasma ratio: AUC tissue/AUC plasma of 2-PMPA.
For data set [4] the following is noted: rats; for tissue/plasma ratio: AUC tissue/AUC plasma of 2-PMPA. The source holds these as a separate data set.
For a further data set, the system named is GCPII. The note with it: cited from earlier work.
For data set [5] the following is noted: cited from earlier work.
For data set [6] the following is noted: equivalent 2-PMPA administration, cited from earlier work.
The conditions of data set [7]: primates, IN 2-PMPA 30 mg/kg; cited from earlier work.

Like-named read-outs stand apart in the source and are kept apart here.

The IC50 is the midpoint of a concentration-inhibition curve. A word on the Cmax: it is the maximum level reached in the sampled fluid or tissue.

recombinant human GCPII protein, sequence (Q04609 whole entry): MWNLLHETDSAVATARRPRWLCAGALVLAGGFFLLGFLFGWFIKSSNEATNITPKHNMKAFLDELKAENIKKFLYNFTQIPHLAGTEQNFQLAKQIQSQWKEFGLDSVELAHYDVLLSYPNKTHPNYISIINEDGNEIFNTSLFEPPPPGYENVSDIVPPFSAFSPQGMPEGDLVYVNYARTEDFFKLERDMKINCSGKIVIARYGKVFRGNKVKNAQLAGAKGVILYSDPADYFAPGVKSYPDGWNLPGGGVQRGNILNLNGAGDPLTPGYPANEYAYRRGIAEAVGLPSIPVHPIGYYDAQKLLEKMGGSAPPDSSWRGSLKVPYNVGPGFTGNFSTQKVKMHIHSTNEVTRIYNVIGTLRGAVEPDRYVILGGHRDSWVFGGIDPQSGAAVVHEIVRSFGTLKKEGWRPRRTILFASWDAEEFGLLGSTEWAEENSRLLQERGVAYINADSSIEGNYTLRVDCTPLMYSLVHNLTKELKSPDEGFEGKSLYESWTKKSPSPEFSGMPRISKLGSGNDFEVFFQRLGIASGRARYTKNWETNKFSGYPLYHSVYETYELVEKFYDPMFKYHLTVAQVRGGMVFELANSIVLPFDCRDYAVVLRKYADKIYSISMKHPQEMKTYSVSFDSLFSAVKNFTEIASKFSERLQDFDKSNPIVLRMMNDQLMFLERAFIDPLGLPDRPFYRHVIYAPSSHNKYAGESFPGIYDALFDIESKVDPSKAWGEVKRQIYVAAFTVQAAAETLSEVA

`CC(=O)Oc1ccc(COC(=O)CCC(CP(=O)(O)O)C(=O)O)cc1` (stereo not shown) [Compound 1, γ-(4-acetoxybenzyl)-2-PMPA]: in data set [1], the IC50 turned out to be 3 ± 0.2 nM. Also, in data set [2], the “Plasma stability % remaining @60 min Human” value is 42%. Further, the tissue/plasma ratio in data set [3] (cerebellum, IN) came out at 0.26; in data set [3] (olfactory bulb, IN) it was 2.2; in data set [3] (plasma, IN), 1; in data set [3] (sciatic nerve, IN), 0.84; in data set [4] (cerebellum, IV), 0.04; in data set [4] (cortex, IV) it was 0.04. Also, the tissue/plasma ratio is on record as 0.03 in data set [4] (olfactory bulb, IV); 1 in data set [4] (plasma, IV); 0.21 in data set [4] (sciatic nerve, IV). The “improvement of sciatic nerve to plasma ratio over free 2-PMPA” value in data set [3] (IN compound 1 versus equivalent dose of 2-PMPA) came out at 7 fold. Besides, in data set [3] (IN, 10 mg/kg equivalent), the “intact prodrug AUC in plasma” value was 8.04 µM·h. Also, the “intact prodrug in brain or sciatic nerve” value is “No intact prodrug was quantifiable” in data set [3] (IN, any time point) and “No intact prodrug was quantifiable” in data set [4] (IV, any time point). The Cmax was 22 µM in data set [3] (read-out: intact prodrug Cmax in plasma, IN, 10 mg/kg equivalent) and 0.2 µM in data set [4] (read-out: intact prodrug Cmax in plasma, IV, 10 mg/kg equivalent). Moreover, the “fold lower 2-PMPA level after IV as compared to IN” value was 4 fold in data set [4] (cerebellum), 4.5 fold in data set [4] (cortex) and 5 fold in data set [4] (sciatic nerve).
For `O=C(O)CCC(CP(=O)(O)O)C(=O)O` (stereo not shown) [Compound 2-PMPA, 2-(Phosphonomethyl)pentanedioic acid], the IC50 with GCPII is […]. In addition, the “oral bioavailability (F)” value in data set [5] is listed as under 2%. Moreover, the “plasma exposure (AUC)” value in data set [6] (IN route) was 79.1 µM·h; in data set [6] (intraperitoneal (IP) route), 77.1 µM·h. Besides, the “2-PMPA concentration in CSF” value in data set [7] is […].
`CCCCOC(=O)CCC(CP(=O)(O)O)C(=O)O` (stereo not shown) [Compound 3]: the IC50 in data set [1] (GCPII inhibition) stood at 1 ± 0.1 nM.
Consider `O=C(CCC(CP(=O)(O)O)C(=O)O)OCc1ccccc1` (stereo not shown) [Compound 4], for which the IC50 in data set [1] (GCPII inhibition) came out at 20 ± 1 nM.
Turning to `CCCCCCCCOC(=O)CCC(CP(=O)(O)O)C(=O)O` (stereo not shown) [Compound 5], in data set [1] (GCPII inhibition), the IC50 is 2 ± 0.2 nM.

The values are drawn from paper PMC5795618 (Molecular pharmaceutics, 2017).
